{"source": "patent US20220162610A1", "about": "“NOVEL RNA TRANSCRIPT” (PTC Therapeutics, Inc., priority 2020, published 2022)", "key": {"HTT protein": {"test_system": "HTT protein", "experiment": "HTT protein electrochemiluminescence (ECL) assay in HD patient fibroblasts, 96 h", "assay_type": "cell-based, human", "conditions": "for HTT protein level: fibroblasts derived from HD patients, 96 h", "protocol": "Human fibroblasts derived from a homozygous patient with HD (GM4857) were cultured for 96 hours in the presence of test compounds (in 0.5% DMSO) or controls at 37° C. in a humidified 5% CO2 atmosphere. After 96 hours, cells were lysed and frozen. HTT protein levels were measured in lysates as described below. Compounds that decreased HTT protein levels relative to DMSO control were further tested in a dose response assay.\nFor analysis in the electrochemiluminescence (ECL) assays, test compounds were serially diluted 3-fold in 100% DMSO (Sigma) to generate a 7-point concentration curve. A solution of test compound (500 nL, 200× in DMSO) was added to each test well with Acoustic Transfer System (EDC Biosystems); final concentration of DMSO was 0.5%. Fibroblasts were seeded in 96-well flat-bottomed plates (Thermo Fisher) at 4×10^3 cells/well in 100 μl of culture medium containing the test compound or DMSO vehicle control and incubated for 96 hours (37° C., 5% CO2, 100% relative humidity). After removal of the supernatant, cells were lysed in 50 μL of 1×LB11 extraction buffer (50 mM Tris (pH 7.4), 300 mM NaCl, 10% [w/v] glycerol, 3 mM EDTA, 1 mM MgCl2, 20 mM glycerophosphate, 25 mM NaF, 1% Triton X-100), containing a Complete™ protease inhibitor cocktail (Roche Diagnostics) with shaking at 4° C. for 30 minutes; the plates were then stored at −20° C.\nMeso Scale Discovery® 96-well plates (MSD®) were coated overnight at 4° C. with primary antibodies in phosphate-buffered saline (PBS; 30 μl/well). The plates were washed three times with 0.05% Tween-20 in 1×PBS (PBS-T; 200 μl/well) then blocked (100 μl/well; 5% bovine serum albumin [BSA] in PBS-T) for 5-6 hours at room temperature (RT) with shaking. Plates were then washed three times with PBS-T. Cell lysates were transferred to the antibody coated plates (25 μl/well) and incubated with shaking overnight at 4° C. After removal of the lysates, the plates were washed three times with PBS-T, and 25 μl of detection antibody in 1% BSA, PBS-T was added to each well and incubated with shaking for 1 hour at room temperature. After three washes with PBS-T, 25 μl of Sulfo-Tag secondary antibody (MSD®; 0.25 μg/ml in 1% BSA, PBS-T) was added to each well and incubated with shaking for 1 hour at RT. After washing three times with PBS-T, 150 μl of read buffer T with surfactant (MSD®) was added to each empty well and the plate was imaged on the SI 6000 imager (MSD®) according to manufacturers' instructions for 96-well plates. Primary capture antibodies included: anti-polyglutamine-expanded HTT mouse monoclonal antibody (mAb) clone MW1 (1 μg/mL; Developmental Studies Hybridoma Bank); anti-HTT MAB2166 mAb (1 μg/mL; Millipore); anti-human KRAS rabbit polyclonal antibody (1 μg/mL; Thermo Fisher Scientific). Detection antibodies included: Huntingtin (D7F7) XP® Rabbit mAb (0.25 μg/ml; Cell Signalling Technology®); anti-hKRAS mouse mAb (0.25 μg/ml; LSBIO)."}, "human HTT protein": {"test_system": "human HTT protein", "experiment": "Pharmacodynamic study in BACHD mice, HTT protein in tissues", "assay_type": "in vivo", "protocol": "Test mice were euthanised and brain, muscle (quadriceps), and blood samples were harvested 2 hours after the last dose on Day 20. Prior to analysis, crude total protein from brain and muscle tissue samples was prepared by sample lysis in MSD® assay buffer 1 (MSD®) with Complete™ Protease Inhibitor Cocktail added (Roche Diagnostics). Tissues were then homogenised using TissueLyser II (Qiagen) plus a 5 mm stainless steel bead. The lysate was clarified by centrifugation at 16,000×g for 20 minutes at 4° C. and the total protein concentration quantified with the Pierce™ BCA Protein Assay Kit (Thermo Scientific) according to the manufacturer's instructions. Whole blood was collected by cardiac puncture into EDTA collection tubes. An aliquot (100-200 μL) was added to 1.5 mL of eBioscience™ 1× Red Blood Cell Lysis Buffer (Thermo Fisher) and mixed well for 5 minutes before collecting the white blood cells (WBC) by centrifugation at 400×g. The supernatant was discarded, and the pellet of WBCs was frozen in liquid nitrogen and stored at −70° C. Brain and muscle sample lysates were analysed for hHTT and KRAS protein expression using the ECL protein assay (described previously); using the same method WBC samples were also analysed for hHTT expression but not KRAS.\nEach tissue sample was tested in duplicate using the ECL protein assay and the average hHTT and KRAS readouts were calculated. The ratio of the mean hHTT signal to the mean KRAS signal (×1000) was determined for each test animal. The hHTT/KRAS ratio grand mean for the vehicle group of five test animals was calculated and the fold change relative to the vehicle grand mean was determined for each test animal in each group. Percent hHTT (% hHTT) lowering normalised to KRAS was determined for each test animal by subtracting the fold change from one and multiplying the difference by 100. Each experiment was performed twice yielding ten % hHTT lowering values for each treatment group. For each treatment group, the mean % hHTT lowering plus the standard error of the mean (SEM) was plotted as a bar graph. The % hHTT lowering in white blood cell samples was determined without KRAS using the grand hHTT vehicle mean instead of the grand hHTT/KRAS ratio vehicle mean.\nBACHD: Pharmacodynamic (PD) evaluations were performed in BACHD mice aged 6-10 weeks. Compound or vehicle (HPMC/0.1% Tween 80) was administered to BACHD mice (5 female mice per group) once daily for 21 doses (QD×21) by oral gavage; dosing volumes were 10 mL/kg. Each animal was regularly observed for mortality or signs of pain, distress, or overt toxicity and findings were recorded. Body weights were recorded at the start and at least once a week during the course of the study. As described previously, tissue samples were obtained and prepared for ECL protein assay analysis from each animal as described previously."}}, "data": [{"smiles": "CC1(C)CC(Oc2ccc(-c3ccc(-c4ccnc(O)c4)cc3O)nn2)CC(C)(C)N1", "note": "[HTT-C1]", "values": [{"measurement": "HTT protein level", "setting": "HTT protein", "result": "dose-dependent decrease"}, {"measurement": "wild type and mutant HTT protein expression", "setting": "HTT protein; fibroblasts, 96-hour treatment", "result": "lowered HTT protein expression from both alleles"}]}, {"smiles": "CCN1CCC(c2cc(C)c3nc(-c4ccc5nn(C)cc5c4)cc(=O)n3c2)CC1", "note": "[HTT-D1]", "values": [{"measurement": "HTT protein level", "setting": "HTT protein", "result": "dose-dependent decrease"}]}, {"smiles": "CCN1CCC(c2cc3c(F)cc(-c4cc(C)c5nc(C)cn5n4)cc3nn2)CC1", "note": "[HTT-D3]", "values": [{"measurement": "HTT protein within the brain and peripheral tissues", "setting": "human HTT protein; BACHD mice", "result": "dose dependent and more equitable lowering of HTT protein"}]}, {"smiles": "CC1(C)CC(Oc2ccc(-c3ccc(-c4cn[nH]c4)cc3O)nn2)CC(C)(C)N1", "note": "[HTT-C2]", "values": [{"measurement": "time for protein expression to return to control levels after treatment cessation", "setting": "human HTT protein; 10 mg/kg, brain", "result": "≤ 10", "unit": "days"}, {"measurement": "time at which maximal reductions in HTT levels were achieved", "setting": "human HTT protein; 10 mg/kg, brain, time course 4-63 days", "result": "≤ 21", "unit": "days"}, {"measurement": "lowering of HTT protein throughout the whole brain", "setting": "human HTT protein; 10 mg/kg, incl. striatum and cortex", "result": "> 50", "unit": "%"}, {"measurement": "HTT reduction in blood cells, muscle, heart, liver and kidney", "setting": "human HTT protein; at doses required to achieve 50% HTT lowering in the brain", "result": "> 90", "unit": "%"}, {"measurement": "HTT levels within brain tissue", "setting": "human HTT protein; daily oral administration, 3 or 10 mg/kg", "result": "dose-dependent reduction of HTT levels within brain tissue"}, {"measurement": "HTT protein within peripheral tissues", "setting": "human HTT protein; oral administration", "result": "dose dependently lowered HTT protein within peripheral tissues"}]}]}
